# Entries after “also recorded” stand apart in the source; their conditions may differ.
# Assays:
# [1] = Antioxidant capacity by trapping the superoxide anion (photochemiluminescence with luminol); assay type: biochemical; details: sample needed for activity equivalent to 1 μg Trolox; for μg of sample for 1 μg of Trolox: reference products; for ACL μg of sample for 1 μg of Trolox: methylene furanone samples
# Protocol: The antioxidant capacity of 10 molecules was measured by trapping the superoxide anion: 5d, 9a, 5b, 5a, 5e, 4d, 5f, 5g, 5h, 5j.
# The method consists in generating free radicals by a photochemical signal. Oxidation intensity is 1000 times higher than that obtained in normal conditions.
# Thus, the superoxide radical (O2—) is generated by a photochemical reaction: L+hv(UV)+O2→L*O2→L^++O2—
# Detection is done by chemiluminescence. It enables the evaluation of water-soluble and fat-soluble antioxidant molecules or extracts.
# Part of the superoxide anions are quenched by antioxidants. The remaining free radicals are quantified by chemiluminescence. L^++O2^−→N2+AP*^2−→AP^2−+hv (luminescence)
# The results are expressed respectively in equivalent quantity of vitamin C or Trolox (6-hydroxy-2,5,7,8-tetramethylchroman-2-carboxylic acid). Sensitivity is on the order of a nanomole.
# The analysis of the results depends on two criteria: shape of the curve and numerical value given by the software.
# [2] = UV absorption characteristics (photoprotecting capacity); assay type: physicochemical; details: for region of UV absorption / maximum absorption: UVA, UVB, long UVA (340-400 nm); for UVA/UVB ratio (R) / critical wavelength (λc): UV absorption spectrum
# From the text: The methylene furanone derivatives of general formula (I) of the present invention were thus evaluated in order to determine their photoprotecting capacity by determination of their UV absorption characteristics: molar extinction coefficient ε, critical wavelength (λc) and UVA/UVB ratio.
# By gathering all this information and by comparing the shape of the UV absorption spectra, these molecules can be classified in three categories: […]
# [3] = Photostability under Suntest irradiation (10 MED); assay type: physicochemical; details: irradiated with 10 MED, UV spectra before and after irradiation; for Photostability in solution: in solution in ethanol; for Photostability powder: powder form
# From the text: For this study it was decided to irradiate samples, in powder form or in solution in ethanol, with 10 MED (minimal erythema dose: minimum amount of solar radiation causing the appearance of sunburn). The evaluation of degradation is estimated by the shape of the UV absorption spectra before and after irradiation.
# Evaluation of Stability of Methylene Furanone Derivatives Irradiated in Suntest.
# Tyrosinase = Tyrosinase monophenol monooxygenase (MPMO) inhibition test; assay type: biochemical; parameters: concentration or dose not given beside the values; details: for a 50 quantity; substrate L-tyrosine, compared to maximum activity without inhibitor
# Protocol: Tyrosinase is a limiting enzyme in melanogenesis. It belongs to the family of oxidoreductases. […] It is synthesised in melanocytes. It is activated during its migration towards keratinocytes via melanosomes. It transforms tyrosine into DOPA and then dopaquinone, which eventually leads to polymerization and pigment production.
# The monophenol monooxygenase function is measured in this test. Tyrosinase activity (MPMO in the strict sense) is measured.
# The substrate: L-tyrosine is transformed into L-DOPA. The enzymatic reaction is stopped at this stage. The DOPA produced is determined by an external calibration (0.005 mM to 0.1 mM). The final result is a percentage of inhibition compared to maximum activity without inhibitor or extract.
structure (smiles),measurement,setting,value
"O=C(O)CCCC[C@@H]1CCSS1 (racemic) [Lipoic acid, reference compound]",μg of sample for 1 μg of Trolox,[1],NEGATIVE
"O=C1C=C(c2ccccc2)/C(=C/c2ccccc2)O1 [4a, (Z)-4-Phenyl-5-(phenylmethylene)furan-2(5H)-one]",region of UV absorption / maximum absorption,[2],absorb in long UVA wavelengths
"O=C1C=C(c2ccsc2)/C(=C/c2ccsc2)O1 [4b, (Z)-4-(3-Thiophene)-5-(3-thiophenylmethylene)furan-2(5H)one]",UVA/UVB ratio (R),[2],1.9
same,region of UV absorption / maximum absorption,[2],maximum is in UVB
"O=C1C=C(c2ccc3ccccc3c2)/C(=C/c2ccc3ccccc3c2)O1 [4c, (Z)-4-(2-naphthalene)-5-(2-naphthalenephenylmethylene)furan-2(5H)-one]",molar extinction coefficient ε,[2]; UV absorption,"22,000 l.mol^−1.cm^−1"
same,UVA/UVB ratio (R),[2],3.2
same,region of UV absorption / maximum absorption,[2],maximum is in UVB
COc1ccc(/C=C2\OC(=O)C=C2c2ccc(OC)c(OC)c2)cc1OC [4d],Photostability in solution,[3],moderately stable
same,Photostability powder,[3],stable
same,ACL μg of sample for 1 μg of Trolox,[1],50.2 µg
"O=C1C=C(c2ccccc2F)/C(=C/c2ccccc2F)O1 [4f, (Z)-4-(2-Fluorophenyl)-(Z)-5-(2-fluorophenylmethylene)furan-2(5H)-one]",region of UV absorption / maximum absorption,[2],absorb in long UVA wavelengths
"O=C1C=CC(=C(c2ccccc2)c2ccccc2)O1 [5a, 5-(Diphenylmethylene)furan-2(5H)-one]",critical wavelength (λc),[2],367 nm
same,Photostability in solution,[3],stable
same,Photostability powder,[3],stable
same,ACL μg of sample for 1 μg of Trolox,[1],43.0 µg
"O=C1C=CC(=C(c2ccsc2)c2ccsc2)O1 [5b, 5-(Dithiophene-3-ylmethylene)furan-2-(5H)-one]",Photostability in solution,[3],stable
same,Photostability powder,[3],stable
same,ACL μg of sample for 1 μg of Trolox,[1],28.0 µg
"O=C1C=CC(=C(c2ccc3ccccc3c2)c2ccc3ccccc3c2)O1 [5c, 5-(Dinaphthalene-2-ylmethylene)furan-2-(5H)-one]",region of UV absorption / maximum absorption,[2],absorb in long UVA wavelengths
"COc1ccc(C(=C2C=CC(=O)O2)c2ccc(OC)c(OC)c2)cc1OC [5d, 5-(bis(3,4-Dimethoxyphenyl)methylene)furan-2-(5H)-one]",Photostability in solution,[3],stable
same,Photostability powder,[3],completely unstable; also recorded: not stable
same,ACL μg of sample for 1 μg of Trolox,[1],12.7 µg
CC(C)(C)OC(=O)Nc1ccc(C(=C2C=CC(=O)O2)c2ccc(NC(=O)OC(C)(C)C)cc2)cc1 [5e],Photostability in solution,[3],stable
same,Photostability powder,[3],stable
same,ACL μg of sample for 1 μg of Trolox,[1],46.3 µg
"O=C1C=CC(=C(c2ccccc2F)c2ccccc2F)O1 [5f, 5-bis((2-fluorophenyl)methylene)furan-2-(5H)-one]",Photostability in solution,[3],stable
same,Photostability powder,[3],stable
same,ACL μg of sample for 1 μg of Trolox,[1],88.3 µg
"O=C1C=CC(=C(c2ccc(O)c(O)c2)c2ccc(O)c(O)c2)O1 [5g, 5-(bis(3,4-dihydroxyphenyl)methylene)furan-2-(5H)-one]",ACL μg of sample for 1 μg of Trolox,[1],0.03 µg
same,inhibition of MPMO enzyme activity,Tyrosinase,65.93%
"COc1cc(C(=C2C=CC(=O)O2)c2cc(OC)c(OC)c(OC)c2)cc(OC)c1OC [5h, 5-(bis(3,4,5-trimethoxyphenyl)methylene)furan-2-(5H)-one]",ACL μg of sample for 1 μg of Trolox,[1],30 µg
"O=C1C=CC(=C(c2cc(O)c(O)c(O)c2)c2cc(O)c(O)c(O)c2)O1 [5i, 5-(bis(3,4,5-Trihydroxyphenyl)methylene)furan-2-(5H)-one]",ACL μg of sample for 1 μg of Trolox,[1],1.5 µg
"O=C1C=C(Br)/C(=C/c2ccccc2)O1 [6a, (Z)-4-Bromo-5-(phenylmethylene)furan-2-(5H)-one]",region of UV absorption / maximum absorption,[2],absorb in long UVA wavelengths
"O=C1C=C(Br)/C(=C/c2ccsc2)O1 [6b, (Z)-4-Bromo-5-(thiophene-3-ylmethylene)furan-2-(5H)-one]",critical wavelength (λc),[2],355 nm
"O=C1C=C(c2ccsc2)/C(=C/c2ccccc2)O1 [8a, (Z)-5-(Phenylmethylene)-4-(thiophene-3-yl)furan-2-(5H)-one]",region of UV absorption / maximum absorption,[2],absorb in long UVA wavelengths
"O=C1C=C(c2ccccc2)/C(=C/c2ccsc2)O1 [8b, 4-Phenyl-(Z)-5-(thiophene-3-ylmethylene)furan-2-(5H)-one]",region of UV absorption / maximum absorption,[2],absorb in long UVA wavelengths
"O=C1C=C/C(=C(\c2ccccc2)c2ccsc2)O1 [9a, (Z)-5-(phenylthiophene-3-ylmethylene)furan-2-(5H)-one]",Photostability in solution,[3],stable
same,Photostability powder,[3],stable
same,ACL μg of sample for 1 μg of Trolox,[1],21.6 µg
"COc1ccc(O)c(C(C)(C)C)c1 [Butylhydroxyanisole, reference compound]",μg of sample for 1 μg of Trolox,[1],2.650 µg
"N[C@@H](CS)C(=O)O [Cysteine, reference compound]",μg of sample for 1 μg of Trolox,[1],698 µg
"COC1=C(OC)C(=O)C(CCCCCCCCCCO)=C(C)C1=O [Idebenone, reference compound]",μg of sample for 1 μg of Trolox,[1],10.10 µg
"Cc1c(C)c2c(c(C)c1O)CCC(C)(C(=O)O)O2 (stereo not drawn) [Trolox, 6-hydroxy-2,5,7,8-tetramethylchroman-2-carboxylic acid, reference compound]",μg of sample for 1 μg of Trolox,[1],1.067 µg
"O=C1O[C@H]([C@@H](O)CO)C(O)=C1O [Vitamin C, ascorbic acid, reference compound]",μg of sample for 1 μg of Trolox,[1],0.451 µg
"CC(=O)Oc1c(C)c(C)c2c(c1C)CCC(C)(CCC[C@H](C)CCC[C@H](C)CCCC(C)C)O2 (stereo partly drawn) [α-tocopherol-acetate, reference compound]",μg of sample for 1 μg of Trolox,[1],140 µg

# Reference: patent US8563548B2, “Methylene furanone derivatives and use of said derivatives as a photoprotecting or antioxidant or depigmentation agent in cosmetic or dermatological compositions” (Pierre Fabre Dermo-Cosmetique, priority 2008, dated 2013)
